Measured values as given in US20250304623A1, “PEPTIDES FOR INTRACELLULAR DELIVERY” (UNIVERSIDADE DE SANTIAGO DE COMPOSTELA, priority 2022, published 2025).
*: point of attachment. NHNH2 = NN*

Tests used:
Type in all cases: cell-based
[1] = tested on: HepG2 cells expressing EGFP; experiment: EGFP-targeting siRNA delivery (GFP silencing vs siMOCK), HepG2
Procedure: (§1) To generate an EGFP expressing HeLa cell line, HeLa cells were transfected with EGFP pDNA (pEGFP-C1, Clontech) and stable transfectants were selected with 400 μg/mL of G-418 (Millipore). Green clones were selected by epifluorescence microscopy and tested for EGFP expression stability through several passages. […] All other EGFP-expressing cell lines were obtained in a similar way from parent non-EGFP-expressing cell lines.
(§2) Cells expressing EGFP were seeded in a 96 well plate the day before the experiment at a concentration of 50,000 cell/mL (100 μL/w) in DMEM+10% FBS+1% Gln-Abt. For robotic library screening, the delivery of an EGFP-targeting siRNA (EGFP: enhanced green fluorescent protein, Ambion® Silencer® GFP Positive Control siRNA (siGFP) (AM4626)) in six different cell lines expressing EGFP was performed. […] The mixture was shaken for 30 min at room temperature (rt) before the addition to the cells. The cell medium was aspirated, and cells were washed twice with PBS. Finally, 50 μL of the solution of siRNA/amphiphile complexes were added to the cells and incubated for 4 h. After transfection, the medium was replaced by 100 μL of fresh DMEM supplemented with 10% FBS. The fluorescence knockdown was quantified after 72 h in a plate reader, by comparison with cells transfected with a non-targeting siRNA control (siMOCK, Silencer™ Negative Control No. 1 siRNA (siMOCK) (AM4611)). EGFP knockdown was compared with Lipofectamine® RNAiMAX silencing efficiency (30-60% depending on cell line, defined with a numeric value in the below tables). All experiments were done in triplicate.
(§3) Tables 1-7: RLuc (pDNA) or EGFP (mRNA) expression levels were normalized to Lipofectamine reagents (value=1) and expressed as fold-times signal increase. In the case of siRNA, the siRNA treated cells fluorescence was compared with siMOCK control fluorescence, while Cas9-RNP mediated knockout was measured against the fluorescence of untreated cells. In both siRNA and Cas9-RNP, values are expressed as % fluorescence reduction. Amphiphile concentration was 5 μM in all cases. All experiments were performed in triplicate.
(§4) Tables 20-25 show the mean (triplicates) percentage of GFP-silencing, accounted by fluorescence intensity decrease relative to a non-targeting siRNA (siMOCK) control, measured after the transfection of siRNA by different amphiphiles at different concentrations in a variety of cell lines. Background values, accounted by untreated control cells, were subtracted for processing.

[2] = tested on: HepG2 cells expressing EGFP; experiment: Cas9-RNP delivery against EGFP (gene editing, plate reader), HepG2
Procedure: as §1
(§5) Cells expressing EGFP were seeded in a 96 well plate the day before the experiment at a concentration of 50,000 cell/mL (100 μL/w) in DMEM+10% FBS+1% Gln-Abt. For robotic library screening, the delivery of Cas9-RNP against EGFP (RNP designed to knock-out the gene encoding for the enhanced green fluorescent protein (EGFP)) was performed. For RNP assembly, 9.2 μL of crRNA and 9.2 μL of tracrRNA were mixed in 211.6 μL of Nuclease-Free Duplex Buffer (IDT), incubated for 5 min at 95° C. and slowly cooled at rt (see I. Lostalé-Seijo, et al. Peptide/Cas9 nanostructures for ribonucleoprotein cell membrane transport and gene edition, Chem. Sci., 2017). Cas9 protein was dissolved in DMEM at a final concentration of 4 μM and equal volumes of the RNA complex and Cas9 were mixed and incubated for 5 min at rt. 75 μL of the corresponding amphiphile concentrations were added to 5 μL of RNP at 2 μM. The mixture was shaken for 30 min at room temperature before the addition to the cells. The cell medium was aspirated, and cells were washed twice with PBS. Cells were covered with 30 μL of DMEM and 20 μL of the RNP/amphiphile complexes were added to the cells (final peptide concentrations=2.5, 5 and 10 μM; final Cas9-RNP concentration=50 nM) and incubated for 4 h. After the incubation, the medium was replaced by 100 μL of fresh DMEM supplemented with 10% FBS. The total EGFP fluorescence was quantified after 72 h in a plate reader (FIG. 2, Table 1 (right) and Table 6). All experiments were done in triplicate. […]
(§6) Tables 26-31 show the mean (triplicates) percentage of gene editing, accounted by GFP fluorescence intensity decrease (% of reduction), measured after the transfection of Cas9-RNP by different amphiphiles at different concentrations in a variety of cell lines. Background values, accounted by untreated control cells, were subtracted for processing.

[3] = tested on: ARPE19 cells expressing EGFP; experiment: EGFP-targeting siRNA delivery (GFP silencing vs siMOCK), ARPE19
Procedure: as §1, §2, §3, §4

[4] = tested on: ARPE19 cells expressing EGFP; experiment: Cas9-RNP delivery against EGFP (gene editing, plate reader), ARPE19
Procedure: as §1, §5, §6

[5] = tested on: Hek293 cells expressing EGFP; experiment: EGFP-targeting siRNA delivery (GFP silencing vs siMOCK), Hek293
Procedure: as §1, §2, §3, §4

## Ac-RK*LRK*K*L-NH2 (Ac-RK(NHNH2)LRK(NHNH2)K(NHNH2)L-NH2; not fully specified; printed as Ac-RK*LRK*K*L-NH2; also: K*2,K*5,K*6: native or modified lysine (ε-amide to a linker)) [Peptide 7.3]
[1]; Dodecanal, 10 μM
  percentage of GFP-silencing relative to siMOCK: 17%
[1]; Dodecanal, 15 μM
  percentage of GFP-silencing relative to siMOCK: 10%
[1]; Myristoleyl, 5 μM
  percentage of GFP-silencing relative to siMOCK: 6%
[1]; Myristoleyl, 10 μM
  percentage of GFP-silencing relative to siMOCK: 5%
[1]; Myristoleyl, 15 μM
  percentage of GFP-silencing relative to siMOCK: 3%
[1]; Oleyl, 5 μM
  percentage of GFP-silencing relative to siMOCK: 7%
[1]; Oleyl, 10 μM
  percentage of GFP-silencing relative to siMOCK: 9%
[1]; Palmitoleyl, 5 μM
  percentage of GFP-silencing relative to siMOCK: 9%
[1]; Petroselinyl, 5 μM
  percentage of GFP-silencing relative to siMOCK: 18%
[1]; Petroselinyl, 10 μM
  percentage of GFP-silencing relative to siMOCK: 19%
[2]; Dodecanal, 5 μM
  percentage of gene editing, GFP fluorescence intensity decrease (% of reduction): −21%
[2]; Dodecanal, 10 μM
  percentage of gene editing, GFP fluorescence intensity decrease (% of reduction): −24%
[2]; Dodecanal, 15 μM
  percentage of gene editing, GFP fluorescence intensity decrease (% of reduction): −29%
[2]; Myristoleyl, 5 μM
  percentage of gene editing, GFP fluorescence intensity decrease (% of reduction): −19%
[2]; Myristoleyl, 10 μM
  percentage of gene editing, GFP fluorescence intensity decrease (% of reduction): −20%
[2]; Myristoleyl, 15 μM
  percentage of gene editing, GFP fluorescence intensity decrease (% of reduction): −14%
[2]; Oleyl, 5 μM
  percentage of gene editing, GFP fluorescence intensity decrease (% of reduction): −7%
[2]; Oleyl, 10 μM
  percentage of gene editing, GFP fluorescence intensity decrease (% of reduction): −3%
[2]; Oleyl, 15 μM
  percentage of gene editing, GFP fluorescence intensity decrease (% of reduction): −1%
[2]; Palmitoleyl, 5 μM
  percentage of gene editing, GFP fluorescence intensity decrease (% of reduction): −14%
[2]; Palmitoleyl, 10 μM
  percentage of gene editing, GFP fluorescence intensity decrease (% of reduction): −14%
[2]; Palmitoleyl, 15 μM
  percentage of gene editing, GFP fluorescence intensity decrease (% of reduction): −4%
[2]; Petroselinyl, 10 μM
  percentage of gene editing, GFP fluorescence intensity decrease (% of reduction): −1%
[3]; Dodecanal, 5 μM
  percentage of GFP-silencing relative to siMOCK: 15%
[3]; Dodecanal, 10 μM
  percentage of GFP-silencing relative to siMOCK: 35%
[3]; Dodecanal, 15 μM
  percentage of GFP-silencing relative to siMOCK: 45%
[3]; Palmitoleyl, 15 μM
  percentage of GFP-silencing relative to siMOCK: −5%
[4]; Dodecanal, 5 μM
  percentage of gene editing, GFP fluorescence intensity decrease (% of reduction): 9%
[4]; Dodecanal, 10 μM
  percentage of gene editing, GFP fluorescence intensity decrease (% of reduction): 14%
[4]; Oleyl, 5 μM
  percentage of gene editing, GFP fluorescence intensity decrease (% of reduction): 22%
[4]; Oleyl, 10 μM
  percentage of gene editing, GFP fluorescence intensity decrease (% of reduction): 35%
[4]; Oleyl, 15 μM
  percentage of gene editing, GFP fluorescence intensity decrease (% of reduction): 42%
[4]; Palmitoleyl, 5 μM
  percentage of gene editing, GFP fluorescence intensity decrease (% of reduction): 7%
[4]; Palmitoleyl, 10 μM
  percentage of gene editing, GFP fluorescence intensity decrease (% of reduction): 9%
[4]; Palmitoleyl, 15 μM
  percentage of gene editing, GFP fluorescence intensity decrease (% of reduction): 12%
[4]; Petroselinyl, 5 μM
  percentage of gene editing, GFP fluorescence intensity decrease (% of reduction): 25%
[4]; Petroselinyl, 10 μM
  percentage of gene editing, GFP fluorescence intensity decrease (% of reduction): 13%
[5]; Myristoleyl, 5 μM
  percentage of GFP-silencing relative to siMOCK: 29%
[5]; Oleyl, 5 μM
  percentage of GFP-silencing relative to siMOCK: 26%
[5]; Palmitoleyl, 15 μM
  percentage of GFP-silencing relative to siMOCK: 19%
[5]; Petroselinyl, 15 μM
  percentage of GFP-silencing relative to siMOCK: 3%
